According to PMC10773943, “Molecular cloning and functional analysis of 4-coumarate: CoA ligases from Marchantia paleacea and their roles in lignin and flavanone biosynthesis” (PLOS ONE, 2024):

Tests used:
Assay type in all cases: biochemical, Marchantia paleacea
Conditions in all cases: ATP, MgCl2, 200 mM Tris-HCl (assay: 5 mM ATP, 300 μM CoA, 5 mM MgCl2, pH 7.5, 30°C)
[1] = tested on: T1, Mp4CL1; experiment: UV absorbance of CoA ester formation at […] nm
T1 construct: expressed in E. coli BL21(DE3), purified; from transcriptome SRP078650

[2] = tested on: T1, Mp4CL1; experiment: UV absorbance of CoA ester formation at […] nm; remark: listed apart in the source
[3] = tested on: T1, Mp4CL1; experiment: HPLC quantification of CoA ester with calibration curve
Description: HPLC quantification of CoA ester with calibration curve on Mp4CL1

[4] = tested on: T1, Mp4CL1; experiment: UV absorbance of CoA ester formation at […] nm; remark: listed apart in the source

`O=C(O)/C=C/c1ccc(O)c(O)c1` [caffeic acid] showed a Km [1] of 113 ± 24.3 µM.

Work on `O=C(O)/C=C/c1ccccc1` [cinnamic acid] yielded a Km [2] of 115 ± 16.6 µM.

`O=C(O)CCc1ccc(O)cc1` [dihydro-p-coumaric acid] was tested, and the Km [3] was 289 ± 36.5 µM.

For `COc1cc(/C=C/C(=O)O)ccc1O` [ferulic acid], the Km [1] was 414 ± 95.7 µM.

`O=C(O)/C=C/c1ccc(O)cc1` [p-coumaric acid] was tested, and the Km [4] was 94 ± 30.9 µM.
